According to patent US11739074B2, “Ras inhibitors” (Revolution Medicines, Inc., priority 2019, dated 2023):
Read-outs that look alike come from different tables or passages of the source.

Legend:
[1] = molecular target: KRAS G12S (Homo sapiens, UniProt P01116+P62937, G12S); assay: Ras-Raf disruption/FRET/MOA assay, KRAS G12S; type: biochemical; settings: disruption of BRAF RBD binding, with Cyclophilin A; read-out: KRAS G12S FRET IC50
Excerpt: (§1) Disruption of B-Raf Ras-Binding Domain (BRAF^RBD) Interaction with K-Ras by Compounds of the Invention (Also Called a FRET Assay or an MOA Assay)
(§2) Note—The following protocol describes a procedure for monitoring disruption of K-Ras G12C (GMP-PNP) binding to BRAF^RBD by a compound of the invention. This protocol may also be executed substituting other Ras proteins or nucleotides, such as K-Ras G12D and K-Ras G13D.
(§3) The purpose of this biochemical assay was to measure the ability of test compounds to facilitate ternary complex formation between a nucleotide-loaded K-Ras isoform and Cyclophilin A; the resulting ternary complex disrupts binding to a BRAF^RBD construct, inhibiting K-Ras signaling through a RAF effector.
(§4) In assay buffer containing 25 mM HEPES pH 7.3, 0.002% Tween20, 0.1% BSA, 100 mM NaCl and 5 mM MgCl2, tagless Cyclophilin A, His6-K-Ras-GMPPNP, and GST-BRAF^RBD were combined in a 384-well assay plate at final concentrations of 25 μM, 12.5 nM, and 50 nM, respectively. Compound was present in plate wells as a 10-point 3-fold dilution series starting at a final concentration of 30 μM. After incubation at 25° C. for 3 hours, a mixture of anti-His Eu-W1024 and anti-GST allophycocyanin was then added to assay sample wells at final concentrations of 10 nM and 50 nM, respectively, and the reaction incubated for an additional 1.5 hours. […] Compounds that facilitate disruption of a K-Ras:RAF complex were identified as those eliciting a decrease in the TR-FRET ratio relative to DMSO control wells.

[2] = molecular target: KRAS G13D (Homo sapiens, UniProt P01116+P62937, G13D); assay: Ras-Raf disruption/FRET/MOA assay, KRAS G13D; type: biochemical; settings: disruption of BRAF RBD binding, with Cyclophilin A; read-out: KRAS G13D FRET IC50
Excerpt: as §1, §2, §3, §4

[3] = system: AsPC-1 (K-Ras G12D); assay: Potency assay: pERK in AsPC-1 cells; type: cell-based; settings: Homo sapiens
[4] = molecular target: KRAS G12C (Homo sapiens, UniProt P01116+P62937, G12C); assay: Ras-Raf disruption/FRET/MOA assay, KRAS G12C; type: biochemical; settings: disruption of BRAF RBD binding, with Cyclophilin A; read-out: KRAS G12C FRET IC50
Excerpt: as §1, §2, §3, §4

[5] = molecular target: KRAS G12V (Homo sapiens, UniProt P01116+P62937, G12V); assay: Ras-Raf disruption/FRET/MOA assay, KRAS G12V; type: biochemical; settings: disruption of BRAF RBD binding, with Cyclophilin A; read-out: KRAS G12V FRET IC50
Excerpt: as §1, §2, §3, §4

[6] = molecular target: KRAS G13C (Homo sapiens, UniProt P01116+P62937, G13C); assay: Ras-Raf disruption/FRET/MOA assay, KRAS G13C; type: biochemical; settings: disruption of BRAF RBD binding, with Cyclophilin A; read-out: KRAS G13C FRET IC50
Excerpt: as §1, §2, §3, §4

[7] = molecular target: KRAS WT (Homo sapiens, UniProt P01116+P62937); assay: Ras-Raf disruption/FRET/MOA assay, KRAS WT; type: biochemical; settings: disruption of BRAF RBD binding, with Cyclophilin A; read-out: KRAS WT FRET IC50
Excerpt: as §1, §2, §3, §4

[8] = molecular target: T1, NRAS G12C (Homo sapiens, UniProt P01111+P62937, G12C); assay: Ras-Raf disruption/FRET/MOA assay, NRAS G12C; type: biochemical; settings: NRAS G12C; read-out: NRAS G12C FRET data IC50
T1 construct: His6
Excerpt: as §1, §2, §3, §4

[9] = system: AsPC-1 (K-Ras G12D); assay: CellTiter-Glo cell viability assay, AsPC-1; type: cell-based; settings: Homo sapiens, ASPC1, 120 h, read-out: AsPC-1 Cell Viability IC50
In short: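 Direct compound addition to plated cells; 5-day exposure; ~30 min RT equilibration; CellTiter-Glo luminescence. Normalization: (sample/avg DMSO)*100; 4-parameter logistic curve fit.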

[10] = molecular target: KRAS G12D (Homo sapiens, UniProt P01116+P62937, G12D); assay: Ras-Raf disruption/FRET/MOA assay, KRAS G12D; type: biochemical; settings: disruption of BRAF RBD binding, with Cyclophilin A; read-out: KRAS G12D FRET IC50
Excerpt: as §1, §2, §3, §4

[11] = ASPC1, AsPC-1 cells, K-Ras G12D, read-out: pERK EC50 (AsPC-1 KRAS G12D)
[12] = AsPC-1, K-Ras G12D, 5-day treatment
[13] = ASPC1, read-out: pERK EC50 (AsPC-1 KRAS G12D)

Sequence of KRAS G12V (P01116 1-169 isoform P01116-2 G12V limits assumed): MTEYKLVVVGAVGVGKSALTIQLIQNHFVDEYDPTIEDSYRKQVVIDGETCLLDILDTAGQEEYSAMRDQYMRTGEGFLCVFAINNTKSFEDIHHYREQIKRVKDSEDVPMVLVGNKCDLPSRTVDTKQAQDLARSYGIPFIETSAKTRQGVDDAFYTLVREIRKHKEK
Sequence of KRAS G12V (P62937 whole entry): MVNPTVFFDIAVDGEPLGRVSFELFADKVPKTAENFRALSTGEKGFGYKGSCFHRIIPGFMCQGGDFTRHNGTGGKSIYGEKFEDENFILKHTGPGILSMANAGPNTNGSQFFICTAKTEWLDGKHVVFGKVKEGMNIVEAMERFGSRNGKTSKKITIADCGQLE
Sequence of KRAS G12C (P01116 1-169 isoform P01116-2 G12C limits assumed): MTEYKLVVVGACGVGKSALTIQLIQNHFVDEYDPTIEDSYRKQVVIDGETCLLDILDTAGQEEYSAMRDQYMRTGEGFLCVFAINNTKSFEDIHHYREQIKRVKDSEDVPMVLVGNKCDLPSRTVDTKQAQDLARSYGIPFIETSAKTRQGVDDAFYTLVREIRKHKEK
Sequence of KRAS G12C (P62937 whole entry): as the sequence (P62937 whole entry) above
Sequence of KRAS G13D (P01116 1-169 isoform P01116-2 G13D limits assumed): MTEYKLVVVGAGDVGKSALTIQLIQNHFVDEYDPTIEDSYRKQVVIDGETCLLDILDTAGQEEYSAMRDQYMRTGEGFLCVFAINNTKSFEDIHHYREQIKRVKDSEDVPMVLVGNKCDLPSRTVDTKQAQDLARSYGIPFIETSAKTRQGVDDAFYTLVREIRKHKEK
Sequence of KRAS G13D (P62937 whole entry): as the sequence (P62937 whole entry) above
Sequence of KRAS G12D (P01116 1-169 isoform P01116-2 G12D limits assumed): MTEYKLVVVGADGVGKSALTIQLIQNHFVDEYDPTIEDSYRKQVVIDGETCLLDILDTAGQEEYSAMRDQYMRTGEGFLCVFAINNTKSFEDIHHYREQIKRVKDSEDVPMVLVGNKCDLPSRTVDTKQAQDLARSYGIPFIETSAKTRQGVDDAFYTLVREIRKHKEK
Sequence of KRAS G12D (P62937 whole entry): as the sequence (P62937 whole entry) above
T1 sequence (P01111 whole entry G12C): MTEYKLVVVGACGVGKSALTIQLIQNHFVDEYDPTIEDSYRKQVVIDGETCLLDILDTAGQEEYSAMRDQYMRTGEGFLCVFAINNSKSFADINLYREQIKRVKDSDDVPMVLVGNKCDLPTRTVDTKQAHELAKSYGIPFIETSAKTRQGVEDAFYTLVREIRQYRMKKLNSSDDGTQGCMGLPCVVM
T1 sequence (P62937 whole entry): as the sequence (P62937 whole entry) above
Sequence of KRAS G12S (P01116 1-169 isoform P01116-2 G12S limits assumed): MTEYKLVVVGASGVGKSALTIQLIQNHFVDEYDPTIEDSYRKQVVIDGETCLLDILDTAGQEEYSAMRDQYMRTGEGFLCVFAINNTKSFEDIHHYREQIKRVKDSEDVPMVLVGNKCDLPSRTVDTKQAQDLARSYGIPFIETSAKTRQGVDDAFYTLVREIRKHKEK
Sequence of KRAS G12S (P62937 whole entry, the tested form may be a part): as the sequence (P62937 whole entry) above
Sequence of KRAS WT (P01116 1-169 isoform P01116-2 limits assumed): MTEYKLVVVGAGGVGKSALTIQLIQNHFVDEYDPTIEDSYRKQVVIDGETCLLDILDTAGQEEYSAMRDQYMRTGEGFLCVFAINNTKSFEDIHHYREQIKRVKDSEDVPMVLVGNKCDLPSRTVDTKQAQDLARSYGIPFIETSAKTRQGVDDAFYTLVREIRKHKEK
Sequence of KRAS WT (P62937 whole entry): as the sequence (P62937 whole entry) above
Sequence of KRAS G13C (P01116 1-169 isoform P01116-2 G13C limits assumed): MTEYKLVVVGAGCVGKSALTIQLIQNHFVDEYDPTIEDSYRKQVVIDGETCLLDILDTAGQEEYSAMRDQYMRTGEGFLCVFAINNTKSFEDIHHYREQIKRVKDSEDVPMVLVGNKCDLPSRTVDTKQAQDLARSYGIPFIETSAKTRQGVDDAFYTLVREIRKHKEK
Sequence of KRAS G13C (P62937 whole entry): as the sequence (P62937 whole entry) above

SMILES | IC50 [1] [nM] | IC50 [2] [nM] | EC50 [3, 11] [nM] | IC50 [4] [nM] | IC50 [5] [nM] | IC50 [6] [nM] | IC50 [7] [nM] | IC50 [8] [nM] | IC50 [9, 12] [nM] | IC50 [10] [nM] | EC50 [3, 13] [nM] | IC50 [9] [nM]
CCn1c(-c2cccnc2[C@H](C)OC)c2c3cc(ccc31)-c1cc(O)cc(c1)C[C@H](NC(=O)[C@H](C(C)C)N1CC[C@@]3(CCN(C[C@H]4CN4)C3)C1=O)C(=O)N1CCC[C@H](N1)C(=O)OCC(C)(C)C2 (single isomer, unassigned) [Example 139] | 10 to 100 | 10 to 100 | < 5000 | < 10 | 10 to 100 | < 10 | 10 to 100 | < 10 | 1000 to 10000 | 10 to 100 | – | –
CCn1c(-c2cnccc2COC)c2c3cc(ccc31)-c1cc(O)cc(c1)C[C@H](NC(=O)[C@H](C(C)C)N(C)C(=O)CN(C)C(=O)[C@@H]1CN1C(C)=O)C(=O)N1CCC[C@H](N1)C(=O)OCC(C)(C)C2 [Compound 35] | 10 to 100 | 100 to 1000 | – | 10 to 100 | 100 to 1000 | 10 to 100 | 10 to 100 | 10 to 100 | – | 100 to 1000 | < 5000 | 1000 to 10000
CCn1c(-c2cnccc2COC)c2c3cc(ccc31)-c1cc(O)cc(c1)C[C@H](NC(=O)[C@H](C(C)C)N(C)C(=O)CN(C)C(=O)[C@@H]1CN1C(=O)OC)C(=O)N1CCC[C@H](N1)C(=O)OCC(C)(C)C2 [Compound 39] | 10 to 100 | 100 to 1000 | – | 10 to 100 | 100 to 1000 | 10 to 100 | 100 to 1000 | 10 to 100 | – | 100 to 1000 | < 5000 | 1000 to 10000
CCn1c(-c2cnccc2COC)c2c3cc(ccc31)-c1cc(O)cc(c1)C[C@H](NC(=O)[C@H](C(C)C)N(C)C(=O)CN(C)C(=O)[C@H]1[C@@H](C)N1[S@+]([O-])C(C)(C)C)C(=O)N1CCC[C@H](N1)C(=O)OCC(C)(C)C2 (stereo partly drawn) [Compound 53] | 10 to 100 | 100 to 1000 | – | 10 to 100 | 100 to 1000 | 10 to 100 | 10 to 100 | 10 to 100 | – | 100 to 1000 | < 5000 | 1000 to 10000
CCn1c(-c2cnccc2COC)c2c3cc(ccc31)-c1cc(O)cc(c1)C[C@H](NC(=O)[C@H](C(C)C)N(C)C(=O)CN(C)C(=O)[C@@H]1[C@H](C)N1[S@@+]([O-])C(C)(C)C)C(=O)N1CCC[C@H](N1)C(=O)OCC(C)(C)C2 (stereo partly drawn) [Compound 54] | 10 to 100 | 100 to 1000 | – | 10 to 100 | 100 to 1000 | 10 to 100 | 10 to 100 | 10 to 100 | – | 100 to 1000 | < 5000 | 1000 to 10000
CCn1c(-c2cccnc2[C@H](C)OC)c2c3cc(ccc31)-c1cc(O)cc(c1)C[C@H](NC(=O)[C@H](C(C)C)N(C)C(=O)[C@@H]1CN(C(=O)[C@H]3CN3)C[C@@H]1C)C(=O)N1CCC[C@H](N1)C(=O)OCC(C)(C)C2 [Compound 88] | 10 to 100 | 10 to 100 | < 5000 | < 10 | 10 to 100 | 10 to 100 | 10 to 100 | < 10 | 100 to 1000 | 10 to 100 | – | –
